Experimental data as given in patent US20230183179A1, “NOVEL CELL METABOLISM MODULATING COMPOUNDS AND USES THEREOF” (CRESCENTA BIOSCIENCES, priority 2020, published 2023).

Columns and labels:
[1] = test system: differentiated 3T3-L1 mouse adipocyte cells; assay: Adipocyte glucose consumption in differentiated 3T3-L1 cells (colorimetric glucose assay of the medium); assay type: cell-based; details: 3T3-L1, 24 h, compound 10 μM, loss of glucose from culture medium, mean fold change (compound/DMSO)
In short: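 Differentiated 3T3-L1 mouse adipocytes (rosiglitazone/dexamethasone/IBMX/insulin induction, day 11) treated 24 h with compounds at 10 μM, 0.1% DMSO final. Medium glucose measured colorimetrically; consumption taken as glucose loss from medium versus cell-free control, expressed as mean fold change compound/DMSO ±SD.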

[2] = target: T1, His6 tagged human recombinant FABP4 (Homo sapiens, UniProt P15090); assay: FABP4 TR-FRET assay: displacement of fluorescent fatty acid BODIPY FL C12; details: inhibition of BODIPY FL C12 binding to His6-FABP4; 1.2 μL of 1.085 mM compound in DMSO per well; triplicates, mean percent inhibition
T1 construct: purchased Cayman Chemicals 10009549
Description: Activity of compounds with FABP4 was profiled using a Terbium (Tb) based time resolved fluorescence energy transfer (TR-FRET) assay. The assay measures the compound mediated displacement of the fluorescent fatty acid BODIPY FL C12 (Thermo Fisher; catalog number D3822) from His6 tagged human recombinant FABP4 (His6-FABP4; Cayman Chemicals, catalog number 10009549) via recording the energy transfer from TB donor molecule on anti-His6-tag antibody to acceptor BODIPY moiety. Briefly, compounds and BODIPY FL C12 were prepared at a concentration of 1.085 mM and 4.2 μM, respectively, in DMSO. 1.2 μL of each compound or DMSO (vehicle control) and 1.2 μL of BODIPY FL C12 were added into the wells of a 384-well black polypropylene plate. His6-FABP4 and Tb anti-His6 antibody were prepared in the assay buffer (25 mM Tris/HCl, pH 7.4, 0.4 mg/ml γ-globulins, 0.010% NP-40, 1 mM DTT) at a concentration of 83 nM and 49.6 nM, respectively. The protein and antibody solutions were then mixed at a ratio of 34:7 (v/v) and incubated on ice for 30 minutes. The assay was initiated by adding 41 μL of the resulting protein/antibody solution into the wells containing the compounds and BODIPY FL C12. The plate was centrifuged and incubated at room temperature for 10 min. The TR-FRET signals were recorded using an EnVision Multilabel plate reader (PerkinElmer; TB excitation 320 nm, BODIPY FL C12 emission 520 nm; TB emission 615 nm). Relative fluorescence ratio (520 nm*10,000/615 nm) were used to calculate the compound mediated inhibition of BODIPY C12 FL fatty acid binding to FABP4. The compounds were tested in triplicates and the results were represented as mean percent inhibition (compound*100/DMSO)±standard deviation (SD). Glucose consumption and FABP4 inhibition is shown below in Table 3 below. The compounds showing no inhibition of activity in the TR-FRET assay are marked as N.A. N.D. stands for “not determined”.

T1 sequence (P15090 whole entry): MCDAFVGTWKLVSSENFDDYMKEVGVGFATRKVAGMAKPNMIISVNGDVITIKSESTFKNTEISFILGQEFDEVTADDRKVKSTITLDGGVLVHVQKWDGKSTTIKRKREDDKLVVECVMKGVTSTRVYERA

SMILES	fold induction at 10 µM [1]	inhibition at 1085 µM (stock) [2] [%]
CN(CC(=O)O)c1cc(-c2ccccc2)c2cc(CCc3cncnc3)ccc2n1 [2-[methyl({4-phenyl-6-[2-(pyrimidin-5-yl)ethyl]quinolin-2-yl})amino]acetic acid]	1.22	13.2
CN(CC(=O)O)c1cc(-c2ccccc2)c2cc(CCc3ccc4ncccc4c3)ccc2n1 [2-[methyl({4-phenyl-6-[2-(quinolin-6-yl)ethyl]quinolin-2-yl})amino]acetic acid]	1.4	34.7
CN(CC(=O)O)c1cc(-c2ccccc2)c2cc(CCc3ccc4cccnc4c3)ccc2n1 [2-[methyl({4-phenyl-6-[2-(quinolin-7-yl)ethyl]quinolin-2-yl})amino]acetic acid]	1.25	43.5
CN(CC(=O)O)c1cc(-c2ccccc2)c2cc(CCc3cnc4ccccc4n3)ccc2n1 [2-[methyl({4-phenyl-6-[2-(quinoxalin-2-yl)ethyl]quinolin-2-yl})amino]acetic acid]	1.28	33.6
CN(CC(=O)O)c1cc(-c2ccccc2)c2cc(CCc3ccc4nccnc4c3)ccc2n1 [2-[methyl({4-phenyl-6-[2-(quinoxalin-6-yl)ethyl]quinolin-2-yl})amino]acetic acid]	1.33	33.6
Cc1ccccc1CCc1ccc2nc(N(C)CC(=O)O)cc(-c3ccccc3)c2c1 [2-[methyl({6-[2-(2-methylphenyl)ethyl]-4-phenylquinolin-2-yl})amino]acetic acid]	1.4	38.2
Cc1cccc(CCc2ccc3nc(N(C)CC(=O)O)cc(-c4ccccc4)c3c2)c1 [2-[methyl({6-[2-(3-methylphenyl)ethyl]-4-phenylquinolin-2-yl})amino]acetic acid]	1.53	50.2
CN(CC(=O)O)c1cc(-c2ccccc2)c2cc(CCN3CCOCC3)ccc2n1 [2-[methyl({6-[2-(morpholin-4-yl)ethyl]-4-phenylquinolin-2-yl})amino]acetic acid]	1.13	6.78
CN(CC(=O)O)c1cc(-c2ccncc2)c2cc(CCc3ccccn3)ccc2n1 [2-[methyl({6-[2-(pyridin-2-yl)ethyl]-4-(pyridin-4-yl)quinolin-2-yl})amino]acetic acid]	1.06	16.1
CN(CC(=O)O)c1cc(-c2ccncc2)c2cc(CCc3cccnc3)ccc2n1 [2-[methyl({6-[2-(pyridin-3-yl)ethyl]-4-(pyridin-4-yl)quinolin-2-yl})amino]acetic acid]	1.06	24.6
CN(CC(=O)NCC(=O)O)c1cc(-c2ccccc2)c2cc(Cl)ccc2n1 [2-{2-[(6-chloro-4-phenylquinolin-2-yl)(methyl)amino]acetamido}acetic acid]	1.08	103
CN(CC(=O)O)c1cc(-c2ccc(F)cc2)c2cc(-c3ccc(F)cc3)ccc2n1 [2-{[4,6-bis(4-fluorophenyl)quinolin-2-yl](methyl)amino}acetic acid]	1.28	42
CCCCCCc1ccc2nc(N(C)CC(=O)O)cc(N3CCC(F)(F)C3)c2c1 [2-{[4-(3,3-difluoropyrrolidin-1-yl)-6-hexylquinolin-2-yl](methyl)amino}acetic acid]	1.28	50.5
CCc1ccc2nc(N(C)CC(=O)O)cc(-c3cccc(C(N)=O)c3)c2c1 [2-{[4-(3-carbamoylphenyl)-6-ethylquinolin-2-yl](methyl)amino}acetic acid]	1.07	78
CCc1ccc2nc(OCC(=O)O)cc(-c3cccc(C(N)=O)c3)c2c1 [2-{[4-(3-carbamoylphenyl)-6-ethylquinolin-2-yl]oxy}acetic acid]	0.93	30.4
CCCCCc1ccc2nc(N(C)CC(=O)O)cc(-c3cccc(C(N)=O)c3)c2c1 [2-{[4-(3-carbamoylphenyl)-6-pentylquinolin-2-yl](methyl)amino}acetic acid]	1.04	60.4

SMILES	fold induction at 10 µM [1]	inhibition at 1085 µM (stock) [2] [%]
CCCCCc1ccc2nc(OCC(=O)O)cc(-c3cccc(C(N)=O)c3)c2c1 [2-{[4-(3-carbamoylphenyl)-6-pentylquinolin-2-yl]oxy}acetic acid]	1.02	74.2
CCCc1ccc2nc(N(C)CC(=O)O)cc(-c3cccc(C(N)=O)c3)c2c1 [2-{[4-(3-carbamoylphenyl)-6-propylquinolin-2-yl](methyl)amino}acetic acid]	1.07	48
CCCc1ccc2nc(OCC(=O)O)cc(-c3cccc(C(N)=O)c3)c2c1 [2-{[4-(3-carbamoylphenyl)-6-propylquinolin-2-yl]oxy}acetic acid]	1	42.9
CCc1ccc2nc(N(C)CC(=O)O)cc(-c3cccc(C#N)c3)c2c1 [2-{[4-(3-cyanophenyl)-6-ethylquinolin-2-yl](methyl)amino}acetic acid]	1.16	50.8
CCCCCCc1ccc2nc(OCC(=O)O)cc(-c3cccc(C#N)c3)c2c1 [2-{[4-(3-cyanophenyl)-6-hexylquinolin-2-yl]oxy}acetic acid]	1.02	39.4
CCCCCCc1ccc2nc(OC(C)C(=O)O)cc(-c3cccc(C#N)c3)c2c1 (stereo not shown) [2-{[4-(3-cyanophenyl)-6-hexylquinolin-2-yl]oxy}propanoic acid]	1.19	3.3
CCCCCc1ccc2nc(N(C)CC(=O)O)cc(-c3cccc(C#N)c3)c2c1 [2-{[4-(3-cyanophenyl)-6-pentylquinolin-2-yl](methyl)amino}acetic acid]	1.23	65.1
CCCCCc1ccc2nc(OCC(=O)O)cc(-c3cccc(C#N)c3)c2c1 [2-{[4-(3-cyanophenyl)-6-pentylquinolin-2-yl]oxy}acetic acid]	1.01	10.6
CCCCCCc1ccc2nc(N(C)CC(=O)O)cc(Oc3cccc(F)c3)c2c1 [2-{[4-(3-fluorophenoxy)-6-hexylquinolin-2-yl](methyl)amino}acetic acid]	1.21	98.8
CCCCCCCCc1ccc2nc(N(C)CC(=O)O)cc(Oc3cccc(F)c3)c2c1 [2-{[4-(3-fluorophenoxy)-6-octylquinolin-2-yl](methyl)amino}acetic acid]	1.32	74.6
CCCCCCc1ccc2nc(N(C)CC(=O)O)cc(N3CCC(F)(F)CC3)c2c1 [2-{[4-(4,4-difluoropiperidin-1-yl)-6-hexylquinolin-2-yl](methyl)amino}acetic acid]	1.23	53.7
CCCCCCCCc1ccc2nc(N(C)CC(=O)O)cc(Oc3ccc(F)cc3)c2c1 [2-{[4-(4-fluorophenoxy)-6-octylquinolin-2-yl](methyl)amino}acetic acid]	1.41	78.7
CCCCCCc1ccc2nc(N(CC(=O)O)CC(C)C)cc(-c3ccc(F)cc3)c2c1 [2-{[4-(4-fluorophenyl)-6-hexylquinolin-2-yl](2-methylpropyl)amino}acetic acid]	1.18	78.7
CCCCCCc1ccc2nc(N(C)CC(=O)O)cc(-c3ccc(F)cc3)c2c1 [2-{[4-(4-fluorophenyl)-6-hexylquinolin-2-yl](methyl)amino}acetic acid]	1.3	81
CCCCCCc1ccc2nc(N(CCC)CC(=O)O)cc(-c3ccc(F)cc3)c2c1 [2-{[4-(4-fluorophenyl)-6-hexylquinolin-2-yl](propyl)amino}acetic acid]	1.13	57.1
CCCCCCCCc1ccc2nc(N(CC(=O)O)CC(C)C)cc(-c3ccc(F)cc3)c2c1 [2-{[4-(4-fluorophenyl)-6-octylquinolin-2-yl](2-methylpropyl)amino}acetic acid]	1.28	68
